Measured values as given in US20040115167A1, “Drug delivery device and method having coated microprojections incorporating vasoconstrictors” (priority 2002, published 2004).
Where two headings read alike, the source gives them in different places.

Experiments:
[1] = tested on: hairless guinea pig; settings: for blood flow at the application site: LDV 2 minutes after removal
Experimental: The Guinea pig albumin was used as a model drug or vaccine. The Guinea pig albumen and epinephrine were dry coated on the microprojections of a microprojection array. A microprojection array having long microprojections (600 microns) were chosen in order to maximize bleeding so that the efficacy of the vasoconstrictor could be more easily evaluated.
An aqueous coating solution containing 200 mg/ml of guinea pig albumin and 50 mg/ml of epinephrine bitartrate was prepared. A control solution was prepared which contained only 200 mg/mL guinea pig albumin in water and no vasoconstrictor. The microprojection arrays that were used a penetration angle of 80°. The penetration angle is defined as the angle between the two upper penetration edges of the microprojection. There were 72 microprojections/cm^2 and the overall area of the microprojection array was 2 cm^2.
One group of arrays were dipped into each solution and the excess was wicked off by briefly contacting the microprojection array with tissue. The microprojection arrays were then allowed to air-dry overnight at room temperature.
(§1) The systems that were applied comprised a coated microprojection array which was adhered to the center of a low density polyethylene (LDPE) 7 cm^2 disc, coated with a propriety adhesive. Two systems were applied to each hairless guinea pig.
(§2) At the time of application, the skin of the flank of the animal was manually stretched bilaterally (opposing forces applied on both sides of the expected application site). System application was performed with an impact applicator which applied a force of 0.4 J. Following application of the systems, the stretching tension was released.
(§3) Half of the systems were applied for 5 seconds and then removed. The second half of the systems were applied for 2 minutes and then removed. Therefore there were four test conditions with each condition having been tested with four system.
(§4) Pictures of the application skin sites were taken 2 minutes after removal of the system. The skin sites were monitored visually for 30 minutes for blanching. Bleeding was evaluated visually from the pictures by estimating the percentage of the microprojection puncture sites that were bleeding. Blood flow (mL/min/100 g) was evaluated with a laser Doppler Velocimeter (LDV) at the skin site immediately prior to application of the system and 2 minutes following removal of the system. For each guinea pig, the blood flow measurement taken prior to system application was subtracted from the second measurement (normalized blood flow).

[2] = tested on: hairless guinea pig; settings: skin sites monitored visually for 30 minutes
Experimental: as §1, §2, §3
as §4, with “For each guinea pig, the blood flow measurement taken prior to system application was subtracted from the second measurement (normalized blood flow).” left out

**Q.** CNC[C@H](O)c1ccc(O)c(O)c1 [epinephrine] was tested. Which “percentage of microslits that were bleeding” value ([1]; 5-second application, 600 micron microprojection array dry coated with guinea pig albumin 200 mg/ml + epinephrine bitartrate 50 mg/ml, pictures 2 minutes after removal) did it give?
**A.** 20%

**Q.** And the “normalized blood flow (erythema at the application site)” value ([1]; FIG. 5, baseline blood flow subtracted)?
**A.** minimizes the erythema

**Q.** And the “blood flow at the application site” value ([1]; systems applied for 5 seconds)?
**A.** 30 mls/min/100 grams

**Q.** And the “blood flow at the application site” value ([1]; systems applied for 2 minutes)?
**A.** 30 mls/min/100 grams

**Q.** What about the “percentage of microslits that were bleeding” value ([1]; two-minute application, compared with 5-second application, same coated array) of the same molecule?
**A.** little change in the data

**Q.** And the “time blanching was detectable after removal of the microprojection arrays” value [2]?
**A.** about 30 minutes
